Key:
Format in all cases: cell-based
[1] = system: Candida albicans ATCC 10231; assay: Antimicrobial activity, serial dilution (MIC/MBC), Ca; settings: ATCC10231
Procedure: The antimicrobial activity of the test compounds was determined by the serial dilution technique in Muller Hinton Broth 2 and in Sabouradu broth for fungi. The cultures used for testing included Gram-positive bacteria: Staphylococcus aureus ATCC 6538P FDA 209P, Bacillus cereus ATCC 10702 NCTC 8035, Enterococcus faecalis ATCC 29212; Gram-negative bacteria: Escherichia coli ATCC 25922, Pseudomonas aeruginosa ATCC 9027, and fungi: Trichophyton mentagrophytes var. gypseum 1773, and Candida albicans ATCC 10231; methicillin-resistant strains of S. aureus (MRSA) was obtained from hospital patients with chronic tonsillitis in the Republican Clinical Hospital (Kazan, Russia). The bacterial load was 3.0 × 10^5 cfu/ml. The fungi load was 2.0 × 10^3 cfu/ml. The results were recorded every 24 h for 5-7 days. Cultures were incubated at 37 °C. The experiment was repeated three times. […] The minimum inhibitory concentration (MIC) was defined as the minimum concentration of a compound that inhibits the growth of the corresponding test microorganism. The growth of bacteria, as well as the absence of the growth due to the bacteriostatic action of compounds, were recorded.
Synthesized compounds were further evaluated for antimicrobial activity against test microorganisms: Staphylococcus aureus ATCC 209p (Sa), Bacillus cereus ATCC 8035 (Bc), Escherichia coli CDC F-50 (Ec), Enterococcus faecalis (Ef), Pseudomonas aeruginosa ATCC 9027, Aspergillus niger BKMF-1119, Trichophyton mentagrophytes var. gypseum 1773, and Candida albicans 855-653 including methicillin-resistant strains of S. aureus (MRSA 1 and MRSA 2). The minimum inhibitory (MIC) and minimum bactericidal (MBC) concentrations of ammonium salts were determined against these pathogens (Table 1). Due to the lack of activity of compounds 3a-g against Gram-negative bacterial strains and some fungi, the corresponding data are not shown.

[2] = system: Phytophthora cactorum VKM F-985; assay: Fungicidal activity, radial growth inhibition, P. cactorum
From the text: (§1) Plant pathogenic bacterial strains Micrococcus luteus B-109, Pectobacterium atrosepticum 1043, Pectobacterium carotovorum subsp. carotovorum MI, Pseudomonas fluorescens EL-2.1, and Xanthomonas campestris B-610 and fungal strain Fusarium oxysporum IBPPM 543 were obtained from the specialized scientific culture collection of IBPPM RAS (WFCC no. 975, WDCM no. 1021) (CM IBPPM). Pathogenic fungus Phytophthora cactorum VKM F-985 provided by the All-Russian Collection of Microorganisms (VKM) and deposited at A.E. Favorsky Irkutsk Institute of Chemistry, SB RAS, was also used as test organism. Bacteria M. luteus, P. carotovorum subsp. carotovorum, P. atrosepticum, and Ps. fluorescens were grown in meat-peptone medium (BP), and X. campestris was grown in the medium with glucose, yeast extract, and calcium carbonate (GYCa). Solid media contained Bacto agar (18 g/L); pH was adjusted to 7.2-7.4. All bacterial cultures were grown at 28°C. The mycelial cultures of F. oxysporum and P. cactorum were grown on a glucose-peptone-yeast (GPY) nutrient medium at 27 °C. For inoculum preparation, both fungal strains were initially grown on the agar GPY in Petri dishes and then transferred into the seed medium by punching out 5 mm of the agar plate culture with a self-designed cutter.
(§2) For the fungicidal activity analysis, radial growth (colony diameters) of the fungi on a solid medium in the absence and in the presence of the compounds 3a,c-g solutions at various concentrations were compared. The method consisted of the following: sterile, melted and then cooled to about 60°C GPY agar medium (20.0 ml) was mixed with the precisely measured volumes of the solutions under question, and poured into a sterile Petri dish (90 mm i.d.). After solidification of GPY agar, the media were inoculated by the fungus using 10-day-old cultures of F. oxysporum or P. cactorum. The inoculation was done by transferring a 5-mm (i.d.) GPY-agar block covered with mycelium to the center of the Petri dish followed by incubation in a thermostat at 27°C. The fungicidal effect was scored by the size of mycelium colony on a Petri dish compared to the control without fungicidal admixtures to GPY agar. Each treatment was performed in at least four replicates in two independent experiments. The observation period ended when the control Petri dish was filled with mycelium (usually after 12 days). The inhibition of the phytopathogen colony growth by the compounds 3a,c-g or fludioxonil solutions was calculated as a percentage by which the mycelium radial propagation was decreased compared to the unaffected control, the latter was taken as 100 % of growth (or zero percent of inhibition). The EC50 value was calculated as the compound concentration at which the radial growth of the fungus colony was decreased by 50 % relative to the non-fungicidal control, according to the formula EC50 = 50C/I based on the approach developed e.g., in [34, 35].
(§3) The solutions of tested compounds were prepared with a concentration of 2 mmol/l (stock solution). For comparison, test compounds were also commonly applied disinfecting agents and antibiotics.

[3] = system: Enterococcus faecalis ATCC 29212; assay: Antimicrobial activity, serial dilution (MIC/MBC), Ef; settings: ATCC29212
[4] = system: Staphylococcus aureus ATCC 6538P FDA 209P; assay: Antimicrobial activity, serial dilution (MIC/MBC), Sa; settings: Staphylococcus aureus
[5] = system: Fusarium oxysporum IBPPM 543; assay: Fungicidal activity, radial growth inhibition, F. oxysporum
From the text: as §1, §2, §3

[6] = system: Bacillus cereus ATCC 10702 NCTC 8035; assay: Antimicrobial activity, serial dilution (MIC/MBC), Bc; settings: Bacillus cereus
[7] = C 6.02 μg/mL, age of the fungus 3 days
[8] = C 6.02 μg/mL, age of the fungus 5 days
[9] = C 6.02 μg/mL, age of the fungus 7 days
[10] = C 6.02 μg/mL, age of the fungus 9 days
[11] = C 12.04 μg/mL, age of the fungus 3 days
[12] = C 12.04 μg/mL, age of the fungus 5 days
[13] = C 12.04 μg/mL, age of the fungus 7 days
[14] = C 12.04 μg/mL, age of the fungus 9 days

## CC[N+](CC)(CC)CC(=O)N/N=C1\C(=O)N(Cc2cc(C(C)(C)C)c(O)c(C(C)(C)C)c2)c2ccccc21 [Compound 3a, 2-(2-(1-(3,5-Di-tert-butyl-4-hydroxybenzyl)-2-oxoindolin-3-ylidene)hydrazinyl)-N,N,N-triethyl-2-oxoethanammonium bromide]
[1]
  MBC: > 500 µM
  MIC: > 500 µM
[2]; C 3.01 μg/mL, age of the fungus 3 days
  Inhibition value, I (%): 4%
[2]; C 3.01 μg/mL, age of the fungus 5 days
  Inhibition value, I (%): 9%
[2]; C 3.01 μg/mL, age of the fungus 7 days
  Inhibition value, I (%): 15%
[2]; C 3.01 μg/mL, age of the fungus 9 days
  Inhibition value, I (%): 1%
[2]; C 3.01 μg/mL, age of the fungus 12 days
  Inhibition value, I (%): 0%
[2]; [7]
  Inhibition value, I (%): 13%
[2]; [8]
  Inhibition value, I (%): 21%
[2]; [9]
  Inhibition value, I (%): 22%
[2]; [10]
  Inhibition value, I (%): 4%
[2]; C 6.02 μg/mL, age of the fungus 12 days
  Inhibition value, I (%): 5%
[2]; C 9.03 μg/mL, age of the fungus 3 days
  Inhibition value, I (%): 17%
[2]; C 9.03 μg/mL, age of the fungus 5 days
  Inhibition value, I (%): 22%
[2]; C 9.03 μg/mL, age of the fungus 7 days
  Inhibition value, I (%): 25%
[2]; C 9.03 μg/mL, age of the fungus 9 days
  Inhibition value, I (%): 4%
[2]; C 9.03 μg/mL, age of the fungus 12 days
  Inhibition value, I (%): 5%
[2]; [11]
  Inhibition value, I (%): 40%
[2]; [12]
  Inhibition value, I (%): 47%
[2]; [13]
  Inhibition value, I (%): 49%
[2]; [14]
  Inhibition value, I (%): 41%
[2]; C 12.04 μg/mL, age of the fungus 12 days
  Inhibition value, I (%): 26%
[2]; Phytophthora cactorum, 168 h, day 7, EC50 = 50C/I, read-out: EC50, μg/mL at day 7
  EC50: 10 µg/mL
[3]
  MBC: > 500 µM
  MIC: > 500 µM
[4]
  MIC: 6.5 ± 0.5 µM
[4]; read-out: MBC (converted)
  MBC: 13 µM
[5]; [7]
  Inhibition value, I (%): 11%
[5]; [8]
  Inhibition value, I (%): 4%
[5]; [9]
  Inhibition value, I (%): 9%
[5]; [10]
  Inhibition value, I (%): 0%
[5]; [11]
  Inhibition value, I (%): 14%
[5]; [12]
  Inhibition value, I (%): 12%
[5]; [13]
  Inhibition value, I (%): 18%
[5]; [14]
  Inhibition value, I (%): 3%
[5]; C 24.08 μg/mL, age of the fungus 3 days
  Inhibition value, I (%): 24%
[5]; C 24.08 μg/mL, age of the fungus 5 days
  Inhibition value, I (%): 16%
[5]; C 24.08 μg/mL, age of the fungus 7 days
  Inhibition value, I (%): 27%
[5]; C 24.08 μg/mL, age of the fungus 9 days
  Inhibition value, I (%): 4%
[5]; C 36.12 μg/mL, age of the fungus 3 days
  Inhibition value, I (%): 28%
[5]; C 36.12 μg/mL, age of the fungus 5 days
  Inhibition value, I (%): 24%
[5]; C 36.12 μg/mL, age of the fungus 7 days
  Inhibition value, I (%): 30%
[5]; C 36.12 μg/mL, age of the fungus 9 days
  Inhibition value, I (%): 12%
[5]; Fusarium oxysporum, IBPPM543, 168 h, day 7, EC50 = 50C/I, read-out: EC50, μg/mL at day 7
  EC50: 33.4 µg/mL
[6]
  MBC: > 500 µM
[6]; read-out: MIC
  MIC: 52 ± 4.7 µM

From publication PMC8957246, “Synthesis and diverse biological activity profile of triethylammonium isatin-3-hydrazones” (ADMET & DMPK, 2022)
